Reference: patent publication US20230233569A1 (Revolution Medicines, Inc., priority 2020, published 2023)
Read-outs that look alike come from different tables or passages of the source.

Key:
NCI-H358 (K-Ras G12C) = test: CellTiter-Glo cell viability assay, 5-day treatment; assay type: cell-based; details: Homo sapiens
Experimental: Protocol: CellTiter-Glo® Cell Viability Assay
Note—The following protocol describes a procedure for monitoring cell viability of K-Ras mutant cancer cell lines in response to a compound of the invention. Other RAS isoforms may be employed, though the number of cells to be seeded will vary based on cell line used.
(§1) Test compounds (132.5 nL) were directly dispensed into the assay plates containing cells. […] On day 5, assay plates and their contents were equilibrated to room temperature for approximately 30 minutes. […] Luminescence was measured using the PerkinElmer Enspire. Data were normalized by the following: (Sample signal/Avg. DMSO)*100. The data were fit using a four-parameter logistic fit.
as §1, with “nl)” for “nL)”

KRAS G12C = KRAS G12C (Homo sapiens, UniProt P01116+P62937, G12C); test: Disruption of BRAF RBD interaction with Ras (FRET / MOA assay, with Cyclophilin A); assay type: biochemical
Description: (§2) This protocol may also be executed substituting other Ras proteins or nucleotides.
(§3) The purpose of this biochemical assay was to measure the ability of test compounds to facilitate ternary complex formation between a nucleotide-loaded K-Ras isoform and Cyclophilin A; the resulting ternary complex disrupts binding to a BRAF^RBD construct, inhibiting K-Ras signaling through a RAF effector. Data is reported as IC50 values.
(§4) Compound was present in plate wells as a 10-point 3-fold dilution series starting at a final concentration of 30 μM. After incubation at 25° C. for 3 hours, a mixture of Anti-His Eu-W1024 and anti-GST allophycocyanin was then added to assay sample wells at final concentrations of 10 nM and 50 nM, respectively, and the reaction incubated for an additional 1.5 hours. […] Compounds that facilitate disruption of a K-Ras:RAF complex were identified as those eliciting a decrease in the TR-FRET ratio relative to DMSO control wells.
as §3, with “BRAF^RBDD” for “BRAF^RBD”

KRAS G12D = KRAS G12D (Homo sapiens, UniProt P01116+P62937, G12D); test: as above; assay type: biochemical
Description: as §2, §3, §4
as §3, with “BRAF^RBDD” for “BRAF^RBD”

KRAS G12S = KRAS G12S (Homo sapiens, UniProt P01116+P62937, G12S); test: as above; assay type: biochemical
Description: as §2, §3, §4
as §3, with “BRAF^RBDD” for “BRAF^RBD”

KRAS G12V = KRAS G12V (Homo sapiens, UniProt P01116+P62937, G12V); test: as above; assay type: biochemical
Description: as §2, §3, §4
as §3, with “BRAF^RBDD” for “BRAF^RBD”

KRAS G13C = KRAS G13C (Homo sapiens, UniProt P01116+P62937, G13C); test: as above; assay type: biochemical
Description: as §2, §3, §4
as §3, with “BRAF^RBDD” for “BRAF^RBD”

KRAS G13D = KRAS G13D (Homo sapiens, UniProt P01116+P62937, G13D); test: as above; assay type: biochemical
Description: as §2, §3, §4
as §3, with “BRAF^RBDD” for “BRAF^RBD”

KRAS WT = KRAS WT (Homo sapiens, UniProt P01116+P62937); test: as above; assay type: biochemical
Description: as §2, §3, §4
as §3, with “BRAF^RBDD” for “BRAF^RBD”

NRAS G12C = NRAS G12C (Homo sapiens, UniProt P01111+P62937, G12C); test: as above; assay type: biochemical
Description: as §2, §3, §4
as §3, with “BRAF^RBDD” for “BRAF^RBD”

[1] = read-out: KRAS G12D FRET data, IC50
[2] = read-out: KRAS G12S FRET data, IC50
[3] = KRAS G12V, read-out: KRAS G12V FRET data IC50
[4] = KRAS G13D, read-out: KRAS G13D FRET data IC50
[5] = KRAS WT, read-out: KRAS WT FRET data IC50
[6] = NRAS G12C, read-out: NRAS G12C FRET data IC50
[7] = NCI-H358, 120 h, 5-day treatment, read-out: H358 Cell Viability assay data (K-Ras G12C, IC50)
[8] = KRAS G12V FRET data IC50, KRAS G12V
[9] = KRAS G13D FRET data IC50, KRAS G13D
[10] = KRAS WT FRET data IC50, KRAS WT
[11] = NRAS G12C FRET data IC50, NRAS G12C
[12] = read-out: KRAS G12C FRET data, IC50
[13] = read-out: KRAS G13C FRET data, IC50

Sequence of KRAS G13D (P01116 1-169 isoform P01116-2 G13D limits assumed): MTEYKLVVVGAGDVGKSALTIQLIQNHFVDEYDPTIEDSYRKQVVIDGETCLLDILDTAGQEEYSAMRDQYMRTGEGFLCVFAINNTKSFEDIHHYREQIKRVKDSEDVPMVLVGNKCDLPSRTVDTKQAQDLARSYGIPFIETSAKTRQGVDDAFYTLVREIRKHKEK
Sequence of KRAS G13D (P62937 whole entry): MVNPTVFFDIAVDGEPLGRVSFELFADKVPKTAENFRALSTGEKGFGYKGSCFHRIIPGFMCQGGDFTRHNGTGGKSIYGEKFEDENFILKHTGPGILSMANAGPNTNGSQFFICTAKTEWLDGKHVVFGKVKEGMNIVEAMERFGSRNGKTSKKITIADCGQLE
Sequence of KRAS G12C (P01116 1-169 isoform P01116-2 G12C): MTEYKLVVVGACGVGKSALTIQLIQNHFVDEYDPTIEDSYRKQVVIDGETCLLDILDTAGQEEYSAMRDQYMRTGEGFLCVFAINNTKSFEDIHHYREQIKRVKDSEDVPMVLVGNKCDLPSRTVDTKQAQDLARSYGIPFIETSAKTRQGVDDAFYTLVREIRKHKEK
Sequence of KRAS G12C (P62937 whole entry): as the sequence (P62937 whole entry) above
Sequence of KRAS G12V (P01116 1-169 isoform P01116-2 G12V limits assumed): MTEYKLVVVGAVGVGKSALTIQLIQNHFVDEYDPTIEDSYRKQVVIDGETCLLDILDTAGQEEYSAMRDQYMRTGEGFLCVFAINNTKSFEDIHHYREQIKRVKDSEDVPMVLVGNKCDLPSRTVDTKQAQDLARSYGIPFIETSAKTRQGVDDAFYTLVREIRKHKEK
Sequence of KRAS G12V (P62937 whole entry): as the sequence (P62937 whole entry) above
Sequence of NRAS G12C (P01111 whole entry G12C): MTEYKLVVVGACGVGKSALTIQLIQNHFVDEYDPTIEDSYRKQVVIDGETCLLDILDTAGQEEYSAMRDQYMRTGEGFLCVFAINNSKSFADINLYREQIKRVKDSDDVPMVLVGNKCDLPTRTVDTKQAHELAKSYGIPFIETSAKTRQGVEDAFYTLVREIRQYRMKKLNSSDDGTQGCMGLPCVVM
Sequence of NRAS G12C (P62937 whole entry): as the sequence (P62937 whole entry) above
Sequence of KRAS G12S (P01116 1-169 isoform P01116-2 G12S limits assumed): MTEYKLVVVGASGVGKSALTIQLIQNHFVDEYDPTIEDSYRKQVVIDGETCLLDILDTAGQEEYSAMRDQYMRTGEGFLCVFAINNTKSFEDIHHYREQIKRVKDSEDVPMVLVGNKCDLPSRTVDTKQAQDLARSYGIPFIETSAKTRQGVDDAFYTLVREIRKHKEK
Sequence of KRAS G12S (P62937 whole entry): as the sequence (P62937 whole entry) above
Sequence of KRAS G12D (P01116 1-169 isoform P01116-2 G12D limits assumed): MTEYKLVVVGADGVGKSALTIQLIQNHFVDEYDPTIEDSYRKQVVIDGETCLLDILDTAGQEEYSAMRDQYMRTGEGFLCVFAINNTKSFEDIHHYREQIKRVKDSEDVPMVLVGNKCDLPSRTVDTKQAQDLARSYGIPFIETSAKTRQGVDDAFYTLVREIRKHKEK
Sequence of KRAS G12D (P62937 whole entry): as the sequence (P62937 whole entry) above
Sequence of KRAS WT (P01116 1-169 isoform P01116-2 limits assumed): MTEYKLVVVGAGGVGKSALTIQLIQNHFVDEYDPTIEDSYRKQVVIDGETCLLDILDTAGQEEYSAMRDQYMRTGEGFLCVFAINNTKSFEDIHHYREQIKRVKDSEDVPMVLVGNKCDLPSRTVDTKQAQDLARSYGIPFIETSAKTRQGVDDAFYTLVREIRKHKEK
Sequence of KRAS WT (P62937 whole entry): as the sequence (P62937 whole entry) above
Sequence of KRAS G13C (P01116 1-169 isoform P01116-2 G13C): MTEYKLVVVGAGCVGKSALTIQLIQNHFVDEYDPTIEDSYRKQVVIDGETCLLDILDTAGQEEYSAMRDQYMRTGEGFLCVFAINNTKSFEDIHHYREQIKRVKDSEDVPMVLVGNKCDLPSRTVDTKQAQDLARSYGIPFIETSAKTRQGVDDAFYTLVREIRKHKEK
Sequence of KRAS G13C (P62937 whole entry): as the sequence (P62937 whole entry) above

Row | IC50 (NCI-H358 (K-Ras G12C); NCI-H358, H358, K-Ras G12C, read-out: Additional H358 Cell Viability assay data (K-Ras G12C, IC50)) [nM] | IC50 (KRAS G12C; KRAS G12C, read-out: KRAS G12C FRET data IC50) [nM] | IC50 (KRAS G12D; [1]) [nM] | IC50 (KRAS G12S; [2]) [nM] | IC50 (KRAS G12V; [3]) [nM] | IC50 (KRAS G13C; KRAS G13C, read-out: KRAS G13C FRET data IC50) [nM] | IC50 (KRAS G13D; [4]) [nM] | IC50 (KRAS WT; [5]) [nM] | IC50 (NRAS G12C; [6]) [nM] | IC50 (NCI-H358 (K-Ras G12C); [7]) [nM] | IC50 (KRAS G12C; [12]) [nM] | IC50 (KRAS G13C; [13]) [nM] | SMILES | IC50 (KRAS G12C; KRAS G12C FRET data, IC50) [nM] | IC50 (KRAS G12D; KRAS G12D FRET data, IC50) [nM] | IC50 (KRAS G12S; KRAS G12S FRET data, IC50) [nM] | IC50 (KRAS G12V; [8]) [nM] | IC50 (KRAS G13C; KRAS G13C FRET data, IC50) [nM] | IC50 (KRAS G13D; [9]) [nM] | IC50 (KRAS WT; [10]) [nM] | IC50 (NRAS G12C; [11]) [nM]
1 | > 1000 | > 10000 | > 10000 | > 10000 | > 10000 | > 10000 | > 10000 | > 10000 | > 10000 |  |  |  | C=CC(=O)N1CC[C@H](C(=O)N(C)[C@H](C(=O)N[C@H]2Cc3nc(cs3)-c3ccc4c(c3)c(c(-c3cccnc3[C@H](C)OC)n4CC)CC(C)(C)CN(C)C[C@@H]3CCCN(N3)C2=O)C(C)C)C1 [Example A287] |  |  |  |  |  |  |  | 
2 |  |  | > 10000 | 1000 to 10000 | 1000 to 10000 |  | > 10000 | 1000 to 10000 | 1000 to 10000 | 1000 to 10000 | 1000 to 10000 | > 10000 | CCn1c(-c2cccnc2[C@H](C)OC)c2c3cc(ccc31)-c1cccc(c1)C[C@H](NC(=O)[C@H](C(C)C)N(C)C(=O)[C@H]1CCN(C(C)=O)C1)C(=O)N1CCC[C@H](N1)C(=O)OCC(C)(C)C2 [Example A60] |  |  |  |  |  |  |  | 
3 |  |  | 1000 to 10000 | 100 to 1000 | 1000 to 10000 |  | 100 to 1000 | 100 to 1000 | 100 to 1000 | 1000 to 10000 | 100 to 1000 | 100 to 1000 | CCn1c(-c2cnccc2COC)c2c3cc(ccc31)-c1cc(O)cc(c1)C[C@H](NC(=O)[C@H](C(C)C)N(C)C(=O)CN1CCOCC1)C(=O)N1CCC[C@H](N1)C(=O)OCC(C)(C)C2 [Example A65] |  |  |  |  |  |  |  | 
4 |  |  |  |  |  |  |  |  |  | 1000 to 10000 |  |  | CCn1c(-c2cnccc2COC)c2c3cc(ccc31)-c1cc(O)cc(c1)C[C@H](NC(=O)[C@H](C(C)C)N(C)C(=O)[C@H]1CCN(C)C1)C(=O)N1CCC[C@H](N1)C(=O)OCC(C)(C)C2 [Example A27, (2S)—N-[(8S,14S)-22-ethyl-4-hydroxy-21-[4-(methoxymethyl)pyridin-3-yl]-18,18-dimethyl-9,15-dioxo-16-oxa-10,22,28-triazapentacyclo[18.5.2.1^2,6.1^10,14.0^23,27]nonacosa-1(26),2,4,6(29),20,23(27),24-heptaen-8-yl]-3-methyl-2-{N-methyl-1-[(3S)-1-methylpyrrolidin-3-yl]formamido}butanamide] | 100 to 1000 | 100 to 1000 | 100 to 1000 | 1000 to 10000 | 10 to 100 | 10 to 100 | 100 to 1000 | 100 to 1000
5 |  |  | 100 to 1000 | 100 to 1000 | 1000 to 10000 |  | 100 to 1000 | 100 to 1000 | 100 to 1000 | > 10000 | 100 to 1000 | 100 to 1000 | CCn1c(-c2cccnc2COC)c2c3cc(ccc31)-c1cc(O)cc(c1)C[C@H](NC(=O)[C@H](C(C)C)N(C)C(=O)[C@H]1CCNC1)C(=O)N1CCC[C@H](N1)C(=O)OCC(C)(C)C2 [Example A32] |  |  |  |  |  |  |  | 

Row | SMILES | IC50 (NCI-H358 (K-Ras G12C); NCI-H358, H358, K-Ras G12C, read-out: Additional H358 Cell Viability assay data (K-Ras G12C, IC50)) [nM] | IC50 (KRAS G12C; KRAS G12C, read-out: KRAS G12C FRET data IC50) [nM] | IC50 (KRAS G12D; [1]) [nM] | IC50 (KRAS G12S; [2]) [nM] | IC50 (KRAS G12V; [3]) [nM] | IC50 (KRAS G13C; KRAS G13C, read-out: KRAS G13C FRET data IC50) [nM] | IC50 (KRAS G13D; [4]) [nM] | IC50 (KRAS WT; [5]) [nM] | IC50 (NRAS G12C; [6]) [nM] | IC50 (NCI-H358 (K-Ras G12C); [7]) [nM] | IC50 (KRAS G12C; [12]) [nM] | IC50 (KRAS G13C; [13]) [nM] | IC50 (KRAS G12C; KRAS G12C FRET data, IC50) [nM] | IC50 (KRAS G12D; KRAS G12D FRET data, IC50) [nM] | IC50 (KRAS G12S; KRAS G12S FRET data, IC50) [nM] | IC50 (KRAS G12V; [8]) [nM] | IC50 (KRAS G13C; KRAS G13C FRET data, IC50) [nM] | IC50 (KRAS G13D; [9]) [nM] | IC50 (KRAS WT; [10]) [nM] | IC50 (NRAS G12C; [11]) [nM]
6 | CCn1c(-c2cnccc2COC)c2c3cc(ccc31)-c1cc(O)cc(c1)C[C@H](NC(=O)[C@H](C(C)C)N(C)C(=O)[C@H]1CCN(C(=O)N(C)C)C1)C(=O)N1CCC[C@H](N1)C(=O)OCC(C)(C)C2 [Example A42, (3S)-N3-[(1S)-1-{[(8S,14S)-22-ethyl-4-hydroxy-21-[4-(methoxymethyl)pyridin-3-yl]-18,18-dimethyl-9,15-dioxo-16-oxa-10,22,28-triazapentacyclo[18.5.2.1^2,6.1^10,14.0^23,27]nonacosa-1(26),2,4,6(29),20,23(27),24-heptaen-8-yl]carbamoyl}-2-methylpropyl]-N1,N1,N3-trimethylpyrrolidine-1,3-dicarboxamide] |  |  |  |  |  |  |  |  |  | 1000 to 10000 |  |  | 100 to 1000 | > 10000 | 1000 to 10000 | 1000 to 10000 | 1000 to 10000 | 1000 to 10000 | 1000 to 10000 | 1000 to 10000
